Reference: BigSolDB 2.1

Cc1ccc(S(N)(=O)=O)cc1
Details	solubility (mole fraction)
in acetone, 273.15 K	0.128
in acetone, 279.15 K	0.137
in acetone, 283.65 K	0.144
in acetone, 289.15 K	0.154
in acetone, 293.65 K	0.163
in acetone, 298.85 K	0.173
in acetone, 303.25 K	0.184
in acetone, 308.95 K	0.197
in acetone, 313.15 K	0.211
in acetone, 317.65 K	0.227
in acetone, 322.15 K	0.243
in acetonitrile, 273.15 K	0.0408
in acetonitrile, 279.15 K	0.047
in acetonitrile, 284.15 K	0.0538
in acetonitrile, 289.15 K	0.063
in acetonitrile, 294.15 K	0.0722
in acetonitrile, 299.15 K	0.0826
in acetonitrile, 303.65 K	0.093
in acetonitrile, 309.15 K	0.106
in acetonitrile, 313.15 K	0.121
in acetonitrile, 319.15 K	0.143
in acetonitrile, 324.75 K	0.164
in cyclohexanone, 273.15 K	0.122
in cyclohexanone, 279.15 K	0.131
in cyclohexanone, 284.15 K	0.139
in cyclohexanone, 289.15 K	0.147
in cyclohexanone, 294.15 K	0.157
in cyclohexanone, 299.15 K	0.169
in cyclohexanone, 303.65 K	0.18
in cyclohexanone, 309.15 K	0.192
in cyclohexanone, 313.15 K	0.206
in cyclohexanone, 319.15 K	0.226
in cyclohexanone, 324.75 K	0.244
in cyclopentanone, 273.15 K	0.149
in cyclopentanone, 279.15 K	0.158
in cyclopentanone, 284.15 K	0.166
in cyclopentanone, 289.15 K	0.175
in cyclopentanone, 294.15 K	0.185
in cyclopentanone, 299.15 K	0.196
in cyclopentanone, 303.65 K	0.206
in cyclopentanone, 309.15 K	0.218
in cyclopentanone, 313.15 K	0.231
in cyclopentanone, 319.15 K	0.249
in cyclopentanone, 324.75 K	0.266
in dichloromethane, 273.15 K	0.00336
in dichloromethane, 279.15 K	0.00392
in dichloromethane, 284.15 K	0.00458
in dichloromethane, 289.15 K	0.00587
in dichloromethane, 294.15 K	0.00705
in dichloromethane, 299.15 K	0.00877
in dichloromethane, 303.65 K	0.0103
in dichloromethane, 309.15 K	0.0128
in dichloromethane, 312.15 K	0.0143
in ethanol, 273.15 K	0.0174
in ethanol, 279.15 K	0.0203
in ethanol, 283.65 K	0.0233
in ethanol, 289.15 K	0.0268
in ethanol, 293.65 K	0.0312
in ethanol, 298.85 K	0.0361
in ethanol, 303.25 K	0.0425
in ethanol, 308.95 K	0.05
in ethanol, 313.15 K	0.0592
in ethanol, 317.65 K	0.0705
in ethanol, 322.15 K	0.0842
in ethyl acetate, 273.15 K	0.0364
in ethyl acetate, 279.15 K	0.0401
in ethyl acetate, 283.65 K	0.0442
in ethyl acetate, 289.15 K	0.0481
in ethyl acetate, 293.65 K	0.0541
in ethyl acetate, 298.85 K	0.059
in ethyl acetate, 303.25 K	0.0652
in ethyl acetate, 308.95 K	0.0718
in ethyl acetate, 313.15 K	0.0797
in ethyl acetate, 317.65 K	0.0897
in ethyl acetate, 322.15 K	0.1
in ethyl formate, 273.15 K	0.023
in ethyl formate, 279.15 K	0.0268
in ethyl formate, 284.15 K	0.0308
in ethyl formate, 289.15 K	0.0342
in ethyl formate, 294.15 K	0.0391
in ethyl formate, 299.15 K	0.0447
in ethyl formate, 303.65 K	0.0507
in ethyl formate, 309.15 K	0.0582
in ethyl formate, 313.15 K	0.0655
in ethyl formate, 319.15 K	0.0784
in ethyl formate, 324.75 K	0.0914
in isobutanol, 273.15 K	0.00456
in isobutanol, 279.15 K	0.00562
in isobutanol, 283.65 K	0.0069
in isobutanol, 289.15 K	0.00846
in isobutanol, 293.65 K	0.0103
in isobutanol, 298.85 K	0.0124
in isobutanol, 303.25 K	0.016
in isobutanol, 308.95 K	0.0193
in isobutanol, 313.15 K	0.0236
in isobutanol, 317.65 K	0.0288
in isobutanol, 322.15 K	0.0357
in isopentanol, 273.15 K	0.00515
in isopentanol, 279.15 K	0.00618
in isopentanol, 284.15 K	0.00814
in isopentanol, 289.15 K	0.00944
in isopentanol, 294.15 K	0.0114
in isopentanol, 299.15 K	0.0139
in isopentanol, 303.65 K	0.0168
in isopentanol, 309.15 K	0.0204
in isopentanol, 313.15 K	0.0251
in isopentanol, 319.15 K	0.0319
in isopentanol, 324.75 K	0.039
in isopropanol, 273.15 K	0.0077
in isopropanol, 279.15 K	0.00943
in isopropanol, 283.65 K	0.0114
in isopropanol, 289.15 K	0.0137
in isopropanol, 293.65 K	0.0167
in isopropanol, 298.85 K	0.0201
in isopropanol, 303.25 K	0.0246
in isopropanol, 308.95 K	0.0301
in isopropanol, 313.15 K	0.0365
in isopropanol, 317.65 K	0.0447
in isopropanol, 322.15 K	0.0552
in methanol, 273.15 K	0.0316
in methanol, 279.15 K	0.0362
in methanol, 283.65 K	0.0415
in methanol, 289.15 K	0.0473
in methanol, 293.65 K	0.0544
in methanol, 298.85 K	0.0626
in methanol, 303.25 K	0.0724
in methanol, 308.95 K	0.0836
in methanol, 313.15 K	0.0971
in methanol, 317.65 K	0.112
in methanol, 322.15 K	0.131
in methyl acetate, 273.15 K	0.0494
in methyl acetate, 279.15 K	0.0558
in methyl acetate, 284.15 K	0.062
in methyl acetate, 289.15 K	0.0676
in methyl acetate, 294.15 K	0.075
in methyl acetate, 299.15 K	0.0833
in methyl acetate, 303.65 K	0.0925
in methyl acetate, 309.15 K	0.103
in methyl acetate, 313.15 K	0.115
in methyl acetate, 319.15 K	0.132
in methyl acetate, 324.75 K	0.148
in n-butanol, 273.15 K	0.00725
in n-butanol, 279.15 K	0.00871
in n-butanol, 283.65 K	0.0104
in n-butanol, 289.15 K	0.0124
in n-butanol, 293.65 K	0.0148
in n-butanol, 298.85 K	0.0172
in n-butanol, 303.25 K	0.0209
in n-butanol, 308.95 K	0.0253
in n-butanol, 313.15 K	0.0303
in n-butanol, 317.65 K	0.0363
in n-butanol, 322.15 K	0.044
in n-pentanol, 273.15 K	0.00607
in n-pentanol, 279.15 K	0.00712
in n-pentanol, 284.15 K	0.00906
in n-pentanol, 289.15 K	0.0107
in n-pentanol, 294.15 K	0.0128
in n-pentanol, 299.15 K	0.0153
in n-pentanol, 303.65 K	0.0182
in n-pentanol, 309.15 K	0.022
in n-pentanol, 313.15 K	0.0271
in n-pentanol, 319.15 K	0.0343
in n-pentanol, 324.75 K	0.0416
in n-propanol, 273.15 K	0.00916
in n-propanol, 279.15 K	0.0111
in n-propanol, 283.65 K	0.013
in n-propanol, 289.15 K	0.0154
in n-propanol, 293.65 K	0.0183
in n-propanol, 298.85 K	0.0215
in n-propanol, 303.25 K	0.0259
in n-propanol, 308.95 K	0.0312
in n-propanol, 313.15 K	0.0376
in n-propanol, 317.65 K	0.0455
in n-propanol, 322.15 K	0.0554
